Key:
[1] = biological target: T1, Histone-arginine methyltransferase CARM1 (Homo sapiens, UniProt Q86X55); test: Inhibition of human CARM1 (140 to 480 residues) incubated for 15 mins measured after 60 min by AlphaLISA assay
T1 sequence (Q86X55 whole entry): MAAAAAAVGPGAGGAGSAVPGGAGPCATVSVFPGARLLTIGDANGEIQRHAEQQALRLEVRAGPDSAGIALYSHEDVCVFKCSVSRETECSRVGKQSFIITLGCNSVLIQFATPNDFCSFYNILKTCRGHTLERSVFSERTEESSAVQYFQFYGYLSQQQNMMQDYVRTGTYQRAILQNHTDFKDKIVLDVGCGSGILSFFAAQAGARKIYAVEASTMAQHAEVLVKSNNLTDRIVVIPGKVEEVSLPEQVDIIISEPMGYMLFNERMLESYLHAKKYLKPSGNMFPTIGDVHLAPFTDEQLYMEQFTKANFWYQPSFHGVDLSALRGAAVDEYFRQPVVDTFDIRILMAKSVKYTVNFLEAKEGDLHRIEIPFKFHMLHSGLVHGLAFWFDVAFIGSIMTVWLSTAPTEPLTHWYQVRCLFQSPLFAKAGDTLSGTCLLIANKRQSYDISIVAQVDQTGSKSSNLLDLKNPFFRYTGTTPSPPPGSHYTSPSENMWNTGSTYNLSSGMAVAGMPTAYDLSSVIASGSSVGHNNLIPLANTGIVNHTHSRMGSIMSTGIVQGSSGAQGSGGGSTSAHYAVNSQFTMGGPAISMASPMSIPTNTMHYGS

A-375 [2] = test: Antiproliferative activity against human A-375 cells assessed as cell growth inhibition incubated for 6 days by SRB assay; format: functional, cell-based; details: A-375, 144 h
BT-549 = test: Antiproliferative activity against human BT-549 cells assessed as cell growth inhibition incubated for 6 days by SRB assay; format: functional, cell-based; details: BT-549, 144 h
A-375 [3] = test: Antitumor activity against human A-375 cells xenografted in po dosed nude mouse assessed as tumor growth inhibition at 100 mg/kg administered once daily measured after 21 days relative to control; format: functional; details: A-375, 504 h, time 21 day, read-out: TGI
A-375 [4] = test: Antitumor activity against human A-375 cells xenografted in po dosed nude mouse assessed as tumor growth inhibition at 75 mg/kg administered once daily measured after 21 days relative to control; format: functional; details: A-375, 504 h, time 21 day, read-out: TGI
[5] = Metabolic stability in dog liver microsomes assessed as parent compound remaining measured after 2 hrs; format: ADME, Canis lupus familiaris, Microsome; details: read-out: Stability
[6] = AUC(0 to infinity) in ICR mouse at 10 mg/kg, po measured upto 24 hrs by UPLC analysis; format: ADME, organism-based; design: dose 10 mg/kg, time < 24 hrs, route po; details: in vivo
[7] = Metabolic stability in rat liver microsomes assessed as parent compound remaining measured after 2 hrs; format: ADME, Microsome; details: read-out: Stability
[8] = AUClast in ICR mouse at 10 mg/kg, po measured upto 24 hrs by UPLC analysis; format: ADME, organism-based; design: dose 10 mg/kg, time < 24 hrs, route po; details: in vivo
[9] = Tmax in ICR mouse at 10 mg/kg, po measured upto 24 hrs by UPLC analysis; format: ADME, organism-based; details: in vivo
[10] = Cmax in ICR mouse at 10 mg/kg, po measured upto 24 hrs by UPLC analysis; format: ADME, organism-based; design: time < 24 hrs, dose 10 mg/kg, route po; details: in vivo
[11] = Metabolic stability in human liver microsomes assessed as parent compound remaining measured after 2 hrs; format: ADME, Microsome; details: read-out: Stability
[12] = Metabolic stability in monkey liver microsomes assessed as parent compound remaining measured after 2 hrs; format: ADME, Macaca mulatta, Microsome; details: rhesus monkey, read-out: Stability
[13] = Metabolic stability in mouse liver microsomes assessed as parent compound remaining measured after 2 hrs; format: ADME, Microsome; details: read-out: Stability
[14] = Half life in ICR mouse at 10 mg/kg, po measured upto 24 hrs by UPLC analysis; format: ADME, organism-based; details: in vivo

Structure (SMILES)	IC50 [1]	IC50 (A-375 [2])	IC50 (BT-549)	also measured
Cc1noc(C)c1-c1nc(-c2cccc(CNC(=O)[C@H](C)N)c2)nc(NC2CCOCC2)c1C	> 1000 nM			
CNCCNCc1cccc(-c2nc(Nc3ccccc3)c(C)c(NC3CCOCC3)n2)c1	187 nM			
CNCCNCc1cccc(-c2nc(NC3CCN(S(C)(=O)=O)CC3)c(C)c(-c3c(C)noc3C)n2)c1	4.24 nM	> 50 µM	> 50 µM	
CNCCNCc1cccc(-c2nc(Nc3ccccc3)c(C)c(-c3cccnc3)n2)c1	11.6 nM	10.9 µM	14.1 µM	
CNCCNCc1cccc(-c2nc(-c3c(C)noc3C)c(C)c(N3CCN(S(C)(=O)=O)CC3)n2)c1	0.78 nM	> 50 µM	> 50 µM	
CNCCNCc1cccc(-c2nc(Nc3ccccc3)c(C)c(-c3c(C)nn(C)c3C)n2)c1	19.6 nM	6.7 µM	8.2 µM	
CNCCNCc1cccc(-c2nc(-c3c(C)noc3C)c(C)c(N3Cc4cccnc4C3)n2)c1	1.13 nM	8.2 µM	11.9 µM	
CNCCNCc1cccc(-c2nc(NC3CCOCC3)c(C)c(-c3c(C)nn(C)c3C)n2)c1	0.65 nM	> 50 µM	> 50 µM	
CNC[C@@H](O)COc1ccc(Cl)c(-c2nc(-c3c(C)noc3C)c(C)c(N3CC4(CCN(C(=O)OC)CC4)C3)n2)c1				inhibition in vivo at 100 mg/kg (A-375 [3]): 82.6%; inhibition in vivo at 75 mg/kg (A-375 [4]): 24%
Cc1c(NC2CCOCC2)nc(-c2cccc(CNC(=O)[C@@H](N)CO)c2)nc1-c1ccccc1	> 1000 nM			
CNCCNCc1cccc(-c2nc(NC3CCOCC3)c(C)c(OCc3ccccc3)n2)c1	33.6 nM			
CNCCNCc1cccc(-c2nc(NC3CCOCC3)c(C)c(-c3cc4cccc(OC)c4[nH]3)n2)c1	29.4 nM			
CNCCNCc1cccc(-c2nc(-c3c(C)noc3C)c(C)c(N3CCN(C)CC3)n2)c1	13.1 nM			
Cc1c(NC2CCOCC2)nc(-c2cccc(CNC(=O)[C@H](C)N)c2)nc1-c1ccccc1	> 1000 nM			
CNCCNCc1cccc(-c2nc(-c3c(C)noc3C)c(C)c(N3CCN(C(C)=O)CC3)n2)c1	11.5 nM			
CNCCNCc1cccc(-c2nc(-c3c(C)noc3C)c(C)c(N3CCS(=O)(=O)CC3)n2)c1	2.46 nM	> 50 µM	> 50 µM	
CNCCNCc1cccc(-c2nc(NCc3ccccc3)c(C)c(NC3CCOCC3)n2)c1	31.5 nM			
Cc1noc(C)c1-c1nc(-c2cccc(CNC(=O)[C@@H](N)CO)c2)nc(NC2CCOCC2)c1C	> 1000 nM			
CNCCNCc1cccc(-c2nc(NC3CCOCC3)c(C)c(-c3c(C)noc3C)n2)c1	1.63 nM	> 50 µM	> 50 µM	remaining at 2 h [5]: 85.5%; AUC(0-inf) [6]: 209 ng·h/mL; remaining at 2 h [7]: 93.4%; AUC(0-t) at 24 h [8]: 199 ng·h/mL; Tmax [9]: 1.33 h; Cmax [10]: 95.4 ng/mL; remaining at 2 h [11]: 93.1%; remaining at 2 h [12]: 86.1%; remaining at 2 h [13]: 90%; half-life [14]: 394 min
CNCCNCc1cccc(-c2nc(NC3CCOCC3)c(C)c(-c3cn(C)nc3C)n2)c1	3.78 nM	> 50 µM	> 50 µM	
CNCCNCc1cccc(-c2nc(-c3c(C)noc3C)c(C)c(N3Cc4ccccc4C3)n2)c1	10.1 nM			
CNCCNCc1cccc(-c2nc(-c3c(C)noc3C)c(C)c(N3CCCCC3)n2)c1	21.7 nM			
CNCCNCc1cccc(-c2nc(NC3CCOCC3)c(C)c(Oc3ccccc3)n2)c1	60 nM			
CNCCNCc1cccc(-c2nc(-c3c(C)noc3C)c(C)c(N3CCOCC3)n2)c1	1.1 nM	24.7 µM	> 50 µM	

Continued, in another order:

IC50 [1]	IC50 (A-375 [2])	IC50 (BT-549)	Structure (SMILES)	also measured
11.8 nM			CNCCNCc1cccc(-c2nc(NC3CCOCC3)c(C)c(-c3cccc4[nH]ccc34)n2)c1	
26.9 nM			CNCCNCc1cccc(-c2nc(NC3CCOCC3)c(C)c(-c3ccc(OC)cc3)n2)c1	
> 1000 nM			Cc1c(NC2CCOCC2)nc(-c2cccc(CNC(=O)[C@H](C)N)c2)nc1-c1ccncc1	
6.15 nM			CNCCNCc1cccc(-c2nc(NC3CCOCC3)c(C)c(-c3ccccn3)n2)c1	
2.94 nM	> 50 µM	> 50 µM	CNCCNCc1cccc(-c2nc(NC3CCOCC3)c(C)c(-c3ccnn3C)n2)c1	
5.13 nM			CNCCNCc1cccc(-c2nc(NC3CCOCC3)c(C)c(-c3ccc(OC(F)(F)F)cc3)n2)c1	
0.92 nM	45.5 µM	> 50 µM	CNCCNCc1cccc(-c2nc(NC3CCOCC3)c(C)c(-c3cccnc3)n2)c1	
4.29 nM	> 50 µM	> 50 µM	CNCCNCc1cccc(-c2nc(NC3CCOCC3)c(C)c(-c3cncnc3)n2)c1	
4.37 nM	12.7 µM	32 µM	CNCCNCc1cccc(-c2nc(NC3CCOCC3)c(C)c(-c3cccc4cnccc34)n2)c1	
5.2 nM			CNCCNCc1cccc(-c2nc(NC3CCOCC3)c(C)c(-c3ccc(S(C)(=O)=O)cc3)n2)c1	
29.5 nM			CNCCNCc1cccc(-c2nc(Cl)c(C)c(NC3CCOCC3)n2)c1	
2.3 nM	24.1 µM	23.7 µM	CNCCNCc1cccc(-c2nc(NC3CCOCC3)c(C)c(-c3ccc(O)cc3)n2)c1	
3.84 nM	18.2 µM	25.2 µM	CNCCNCc1cccc(-c2nc(NC3CCOCC3)c(C)c(-c3ccnc4[nH]ccc34)n2)c1	
> 1000 nM			Cc1c(NC2CCOCC2)nc(-c2cccc(CNC(=O)[C@@H](N)CO)c2)nc1-c1ccncc1	
21.4 nM			CNCCNCc1cccc(-c2nc(NC3CCOCC3)c(C)c(-c3cc4ccccc4s3)n2)c1	
3.68 nM	44.3 µM	> 50 µM	CNCCNCc1cccc(-c2nc(NC3CCOCC3)c(C)c(-c3ccncc3)n2)c1	
6.07 nM			CNCCNCc1cccc(-c2nc(NC3CCOCC3)c(C)c(-c3cccc4ncccc34)n2)c1	
10.2 nM			CNCCNCc1cccc(-c2nc(NC3CCOCC3)c(C)c(-c3ccccc3)n2)c1	

— ChEMBL document CHEMBL5236560, “Structure-Based Discovery of Potent CARM1 Inhibitors for Solid Tumor and Cancer Immunology Therapy” (J Med Chem, 2021)
